Our source for the IC50 and Activity values is ChEMBL document CHEMBL1128107, “Amino acid-derived piperidides as novel CCKB ligands with anxiolytic-like properties” (Bioorg Med Chem Lett, 1995).

Active and inactive are the calls of the source. No cut-off for these calls is given here. A value given as a limit tells only on which side of the number the result lay.

As a reminder, the IC50 is the concentration that gives 50% inhibition.

The target in the first assay is T1, Cholecystokinin receptor type A (Cavia porcellus, UniProt Q63931).
T1 sequence (Q63931 whole entry): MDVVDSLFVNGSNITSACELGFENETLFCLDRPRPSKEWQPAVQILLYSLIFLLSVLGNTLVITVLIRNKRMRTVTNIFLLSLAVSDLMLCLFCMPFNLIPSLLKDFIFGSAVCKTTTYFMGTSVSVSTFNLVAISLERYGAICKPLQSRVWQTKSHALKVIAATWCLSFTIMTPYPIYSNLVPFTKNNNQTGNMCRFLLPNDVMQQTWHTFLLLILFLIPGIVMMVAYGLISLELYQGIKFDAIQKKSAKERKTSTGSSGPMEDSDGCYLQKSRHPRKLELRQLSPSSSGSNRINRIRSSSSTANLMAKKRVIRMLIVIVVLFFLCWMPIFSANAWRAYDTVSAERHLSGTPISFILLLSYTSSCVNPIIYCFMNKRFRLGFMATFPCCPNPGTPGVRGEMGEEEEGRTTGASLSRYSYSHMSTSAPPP
The assay can be described thus: Inhibitory activity towards binding of [125I]Bolton-Hunter-CCK-8 to CCKA receptor in guinea pig pancreatic tissue.
Settings: not given
In turn, `CCCC[C@@H](NC(=O)Nc1cccc(C)c1)C(=O)N1CCC(C(=O)c2ccccc2)CC1` yielded a half-inhibitory concentration (IC50) of 2500 nM. Same read-out and setting: the result for `Cc1cccc(NC(=O)N[C@H](COCc2ccccc2)C(=O)N2CCC(Cc3ccccc3)CC2)c1` reads 3400 nM. Same read-out and setting: with `Cc1cccc(NC(=O)N[C@H](COCc2ccccc2)C(=O)N2CCC(C(=O)Nc3ccccc3)CC2)c1` the figure was 500 nM; with `Cc1cccc(NC(=O)N[C@H](COCc2ccccc2)C(=O)N2CCCC(C(=O)Nc3ccccc3)C2)c1` (stereo partly specified), 2200 nM.

For the compound `Cc1cccc(NC(=O)N[C@H](CC(C)C)C(=O)N2CCC(C(=O)c3ccccc3)CC2)c1`, the IC50 came to 2000 nM.

`Cc1cccc(NC(=O)N[C@H](COCc2ccccc2)C(=O)N2CCC(C(=O)c3ccccc3)CC2)c1` gave an IC50 of 2400 nM. As for `CC(C)C[C@H](NC(=O)OC(C)(C)C)C(=O)N1CCC(C(=O)c2ccccc2)CC1`, the IC50 is greater than 2100 nM.

Compound `Cc1cccc(NC(=O)N[C@H](CC(=O)OCc2ccccc2)C(=O)N2CCC(C(=O)c3ccccc3)CC2)c1` displayed an IC50 of 1300 nM. The same measure, in the same setting: the result for `CC(=O)C1CCN(C(=O)[C@@H](COCc2ccccc2)NC(=O)Nc2cccc(C)c2)CC1` reads 1300 nM; that for `Cc1cccc(NC(=O)N[C@H](COC(=O)N2CCCC2)C(=O)N2CCC(C(=O)c3ccccc3)CC2)c1`, 1400 nM; that for `CC(C)C[C@H](NC(=O)[C@H](Cc1c[nH]c2ccccc12)NC(=O)OC(C)(C)C)C(=O)N1CCC(Cc2ccccc2)CC1`, 200 nM.

`Cc1cccc(NC(=O)N[C@H](COC(=O)Nc2ccccc2)C(=O)N2CCC(C(=O)c3ccccc3)CC2)c1` gave an IC50 of 290 nM.

`Cc1cccc(NC(=O)N[C@@H](C(=O)N2CCC(C(=O)c3ccccc3)CC2)[C@@H](C)OCc2ccccc2)c1`: the half-inhibitory concentration (IC50) stood at 1300 nM. In turn, `Cc1cccc(NC(=O)N[C@H](CCC(=O)OCc2ccccc2)C(=O)N2CCC(NC(=O)c3ccccc3)CC2)c1` displayed an IC50 of 970 nM.

`Cc1cccc(NC(=O)N[C@H](COC(=O)N2CCOCC2)C(=O)N2CCC(C(=O)c3ccccc3)CC2)c1` had an IC50 of 1500 nM. On the same count and under the same terms, with `Cc1cccc(NC(=O)N[C@H](CCC(=O)O)C(=O)N2CCC(C(=O)c3ccccc3)CC2)c1` the figure was 1800 nM; with `CC(C)C[C@H](NC(=O)[C@H](Cc1c[nH]c2ccccc12)NC(=O)OC(C)(C)C)C(=O)N1CCC(C(=O)c2ccccc2)CC1`, 640 nM. Turning to `Cc1cccc(NC(=O)N[C@H](COC(=O)N(C)C)C(=O)N2CCC(C(=O)c3ccccc3)CC2)c1`, the concentration for half-maximal inhibition (IC50) came out at 1300 nM. In the case of `Cc1cccc(NC(=O)N[C@H](Cc2c[nH]c3ccccc23)C(=O)N2CCC(C(=O)c3ccccc3)CC2)c1`, the IC50 came out at 1400 nM. Still for that read-out and setting: the result for `Cc1cccc(NC(=O)N[C@H](CS(=O)(=O)Cc2ccccc2)C(=O)N2CCC(C(=O)c3ccccc3)CC2)c1` reads 1100 nM; that for `Cc1cccc(NC(=O)N[C@@H](CC(C)C)C(=O)N2CCC(C(=O)c3ccccc3)CC2)c1`, 5200 nM; that for `Cc1cccc(NC(=O)N[C@H](CCC(=O)OCc2ccccc2)C(=O)N2CCC(C(=O)c3ccccc3)CC2)c1`, 900 nM. The same measure, in the same setting: the result for `Cc1cccc(NC(=O)N[C@H](CCC(=O)OCc2ccccc2)C(=O)N2CCN(C(=O)c3ccccc3)CC2)c1` reads 1500 nM. Compound `Cc1cccc(NC(=O)N[C@H](COCc2ccccc2)C(=O)N2CCC(C(=O)c3ccc(F)cc3)CC2)c1` displayed an IC50 of 420 nM. On the same count and under the same terms, the result for `CC(Cc1c[nH]c2ccccc12)(NC(=O)OC1[C@H]2C[C@@H]3C[C@@H](C[C@H]1C3)C2)C(=O)N1CCC(C(=O)c2ccccc2)CC1` (stereo partly specified) reads 1700 nM; that for `Cc1cccc(NC(=O)N[C@H](CCc2ccccc2)C(=O)N2CCC(C(=O)c3ccccc3)CC2)c1`, 2200 nM. With `Cc1cccc(NC(=O)N[C@H](CCC(=O)OCc2ccccc2)C(=O)N2CCC(C(=O)Nc3ccccc3)CC2)c1`, the IC50 worked out at 690 nM. Still for that read-out and setting: with `Cc1cccc(NC(=O)N[C@H](CCC(=O)N2CCCC2)C(=O)N2CCC(C(=O)c3ccccc3)CC2)c1` the figure was 1900 nM; with `Cc1cccc(NC(=O)N[C@H](CCCc2ccccc2)C(=O)N2CCC(C(=O)c3ccccc3)CC2)c1`, 1800 nM; with `Cc1cccc(NC(=O)N[C@H](C[S+]([O-])Cc2ccccc2)C(=O)N2CCC(C(=O)c3ccccc3)CC2)c1` (stereo partly specified), 800 nM.

In turn, `Cc1cccc(NC(=O)N[C@H](CSCc2ccccc2)C(=O)N2CCC(C(=O)c3ccccc3)CC2)c1` gave an IC50 of 1300 nM.

The compound `CC(C)(C)OC(=O)N[C@@H](Cc1c[nH]c2ccccc12)C(=O)N1CCC(C(=O)c2ccccc2)CC1` gave an IC50 of 4500 nM. The same measure, in the same setting: the result for `Cc1cccc(NC(=O)N[C@H](COC(=O)N2CCCC2)C(=O)N2CCC(C(=O)Nc3ccccc3)CC2)c1` reads 250 nM.

The subject of another assay is Mus musculus. As to the kind of experiment: In vivo anxiolytic activity in mouse upon ip administration; less affinity and selectivity. In kind it is functional, organism-based.
Settings: not given
Turning to `Cc1cccc(NC(=O)N[C@H](CCC(=O)N2CCCC2)C(=O)N2CCC(C(=O)c3ccccc3)CC2)c1`, the Activity result is “Weak activity”.

The next assay has as its system Mus musculus. The assay can be described thus: In vivo anxiolytic activity in mouse upon ip administration; significant activity. The assay is classed as functional, organism-based.
Settings: not given
On to `CC1(C)C2CCC1(COC(=O)N[C@](C)(Cc1c[nH]c3ccccc13)C(=O)NC[C@@H](NC(=O)CCC(=O)O)c1ccccc1)CC2`, for which the Activity entry was “significant activity”.

For `Cc1cccc(NC(=O)N[C@H](COC(=O)N2CCCC2)C(=O)N2CCC(C(=O)c3ccccc3)CC2)c1`, the outcome was Active. Still for that read-out and setting: with `Cc1cccc(NC(=O)N[C@H](COC(=O)N2CCCC2)C(=O)N2CCC(C(=O)Nc3ccccc3)CC2)c1` the entry was “Active”.

A further assay relates to NCI-H345. As to the kind of experiment: Ability to block CCK-8-induced calcium mobilization in NCI-H345 cells. In kind it is functional, cell-based. To be noted: Homo sapiens. On the technique in general: Calcium assays in cells follow changes in intracellular calcium, usually with a dye or a luminescent sensor.
On to `CC1(C)C2CCC1(COC(=O)N[C@](C)(Cc1c[nH]c3ccccc13)C(=O)NC[C@@H](NC(=O)CCC(=O)O)c1ccccc1)CC2`, for which the IC50 turned out to be 2 nM.

As for `Cc1cccc(NC(=O)N[C@H](COC(=O)N2CCCC2)C(=O)N2CCC(C(=O)c3ccccc3)CC2)c1`, the IC50 was found to be 220 nM. Turning to `Cc1cccc(NC(=O)N[C@H](CCC(=O)N2CCCC2)C(=O)N2CCC(C(=O)c3ccccc3)CC2)c1`, the IC50 amounted to 251 nM. The same measure, in the same setting: the result for `Cc1cccc(NC(=O)N[C@H](COC(=O)N2CCCC2)C(=O)N2CCC(C(=O)Nc3ccccc3)CC2)c1` reads 115 nM.
